{"source": "paper PMC6324581", "about": "(Peptide science (Hoboken, N.J.), 2018)", "key": {"[1]": {"test_system": "K. pneumonia (ATCC: 700603)", "type": "cell-based, K. pneumoniae", "settings": "18 h"}, "[2]": {"test_system": "P. aeruginosa (ATCC:10145)", "type": "cell-based", "settings": "ATCC:10145, 18 h"}, "S. aureus (ATCC: 27660)": {"test_system": "S. aureus (ATCC: 27660)", "type": "cell-based", "settings": "ATCC: 27660, 18 h"}, "E. coli D31": {"test_system": "E. coli D31", "type": "cell-based", "settings": "Mueller Hinton broth, ~10^5 CFU/mL, 18 hours at 37°C, OD600, lowest concentration with no visible growth, average of 3 independent samples"}}, "note": "Square brackets hold non-standard residues; d marks the D form. Ends that are not written are not given here. Peptide text beside a SMILES is read from it. Dap = NC[C@H](N)C(=O)O", "data": [{"molecule": "KKLIKVFAKGFKKAKKLWKGIG [PBP-W18]", "values": [{"measurement": "MIC", "setting": "[1]", "result": 1.88, "unit": "µM"}, {"measurement": "MIC", "setting": "[2]", "result": 1.88, "unit": "µM"}, {"measurement": "MIC", "setting": "S. aureus (ATCC: 27660)", "result": 0.94, "unit": "µM"}]}, {"molecule": "KKAAKAWAKGAKKAKKLAKGAG [PBP-A]", "values": [{"measurement": "MIC", "setting": "E. coli D31", "result": ">15", "unit": "µM"}, {"measurement": "MIC", "setting": "[1]", "result": ">15", "unit": "µM"}, {"measurement": "MIC", "setting": "[2]", "result": ">15", "unit": "µM"}]}, {"molecule": "KKLIKVFAKGWKKAKKLFKGIG [PBP-W11]", "values": [{"measurement": "MIC", "setting": "[1]", "result": 1.88, "unit": "µM"}, {"measurement": "MIC", "setting": "[2]", "result": 1.88, "unit": "µM"}, {"measurement": "MIC", "setting": "S. aureus (ATCC: 27660)", "result": 0.47, "unit": "µM"}]}, {"molecule": "KKLIKVWAKGFKKAKKLFKGIG [PBP]", "values": [{"measurement": "MIC", "setting": "E. coli D31", "result": 0.94, "unit": "µM"}, {"measurement": "MIC", "setting": "[1]", "result": 1.88, "unit": "µM"}, {"measurement": "MIC", "setting": "[2]", "result": 1.88, "unit": "µM"}, {"measurement": "MIC", "setting": "S. aureus (ATCC: 27660)", "result": 0.94, "unit": "µM"}]}, {"molecule": "CC[C@H](C)[C@H](NC(=O)CNC(=O)[C@H](CN)NC(=O)[C@H](Cc1ccccc1)NC(=O)[C@H](CC(C)C)NC(=O)[C@H](CN)NC(=O)[C@H](CN)NC(=O)[C@H](C)NC(=O)[C@H](CN)NC(=O)[C@H](CN)NC(=O)[C@H](Cc1ccccc1)NC(=O)CNC(=O)[C@H](CN)NC(=O)[C@H](C)NC(=O)[C@H](Cc1c[nH]c2ccccc12)NC(=O)[C@@H](NC(=O)[C@H](CN)NC(=O)[C@@H](NC(=O)[C@H](CC(C)C)NC(=O)[C@H](CN)NC(=O)[C@@H](N)CN)[C@@H](C)CC)C(C)C)C(=O)NCC(=O)O", "note": "[PBP-X] (H-[Dap][Dap]LI[Dap]VWA[Dap]GF[Dap][Dap]A[Dap][Dap]LF[Dap]GIG-OH)", "values": [{"measurement": "MIC", "setting": "E. coli D31", "result": 1.88, "unit": "µM"}, {"measurement": "MIC", "setting": "[2]", "result": 3.75, "unit": "µM"}]}]}
